# Laboratory results taken from patent US11186564B2, “Dual NAV1.2/5HT2a inhibitors for treating CNS disorders” (Sunovion Pharmaceuticals Inc., priority 2016, dated 2021).
# Target: T1, recombinant human serotonin receptor 5-HT2A (Homo sapiens, UniProt P28223)
# T1 construct: expressed in transfected cells; method B: loaded with Ca2+ dye
# Test: 5-HT2A antagonist Ca2+ assay in CHO-K1 cells (method A aequorin luminescence / method B FLIPR fluorescence)
# Type: cell-based
# Settings: 5HT2A IC50, μM, antagonist mode vs EC80 of reference agonist, method A or B
# Excerpt: The methods utilized to assess the inhibitory activity of compounds on recombinant human serotonin receptor 5-HT2A was based upon previously published approaches [Jerman J C, Brough S J, Gager T, Wood M, Coldwell M C, Smart D, Middlemiss D N. Pharmacological characterisation of human 5-HT2 receptor subtypes. European Journal of Pharmacology 2001 Feb. 23; 414(1):23-30; Le Poul E, Hisada S, Mizuguchi Y, Dupriez V J, Burgeon E, Detheux M. Adaptation of aequorin functional assay to high throughput screening. J Biomolecular Screening 2002 February; 7(1):57-65.] The 5-HT2A receptor signals through Gq-phospholipase signaling cascade, which leads to a transient increase in free intracellular […] concentration. Both 5-HT2A assay methods rely upon monitoring these changes in Ca^2+ concentration.
# In method A [Le Poul E, Hisada S, Mizuguchi Y, Dupriez V J, Burgeon E, Detheux M. (2002)], CHO-K1 cells engineered to stably co-express both recombinant human 5-HT2A and mitochondrial apoaequorin are used. […] For agonist testing, 50 microliters of cell suspension is mixed with 50 microliters of a solution containing test compound or reference agonist in a 96-well standard geometry microtiter plate. The resulting emission of light was recorded using a Hamamatsu Functional Drug Screening System 6000 (FDSS 6000) luminometer. For antagonist testing, 100 microliters of the solution of reference agonist (to yield an agonist concentration, EC80, sufficient to cause the cells to generate an 80% maximal luminescence response in the absence of any antagonist) is injected into the mix of cells and test compound, 15 minutes after the first injection. The resulting emission of light is recorded using Hamamatsu FDSS 6000 luminometer. IC50 values are calculated (from compound concentration dependent inhibition of agonist-induced 5-HT2A-dependent light emission) by non-linear least squares regression of the data (percent inhibition) onto equation (1) above.
# In method B [Jerman J C, Brough S J, Gager T, Wood M, Coldwell M C, Smart D, Middlemiss D N. (2001)], CHO-K1 cells which had been engineered to stably co-express recombinant human 5-HT2A are used in assay done similarly to method A. In method B, the cells are loaded with a fluorogenic Ca^2+ indicator dye by pre-incubation. Addition of the reference agonist serotonin causes a transient increase in fluorescence in a suspension of the loaded cells, which can be detected using the Molecular Devices fluorometric imaging plate reader (FLIPR), a high-throughput platform for 96-well cell-based assays. Addition of test compounds that are 5-HT2A antagonists, prior to the addition of the agonist (to yield an agonist concentration, EC80, sufficient to cause the cells to generate an 80% maximal fluorescence response in the absence of any antagonist), reduces the amount of fluorescence detected by the FLIPR upon agonist addition. IC50 values are calculated (from compound concentration dependent inhibition of agonist-induced 5-HT2A-dependent fluorescence) by non-linear least squares regression of the data (percent inhibition) onto equation (1) above.
# T1 sequence (P28223 whole entry): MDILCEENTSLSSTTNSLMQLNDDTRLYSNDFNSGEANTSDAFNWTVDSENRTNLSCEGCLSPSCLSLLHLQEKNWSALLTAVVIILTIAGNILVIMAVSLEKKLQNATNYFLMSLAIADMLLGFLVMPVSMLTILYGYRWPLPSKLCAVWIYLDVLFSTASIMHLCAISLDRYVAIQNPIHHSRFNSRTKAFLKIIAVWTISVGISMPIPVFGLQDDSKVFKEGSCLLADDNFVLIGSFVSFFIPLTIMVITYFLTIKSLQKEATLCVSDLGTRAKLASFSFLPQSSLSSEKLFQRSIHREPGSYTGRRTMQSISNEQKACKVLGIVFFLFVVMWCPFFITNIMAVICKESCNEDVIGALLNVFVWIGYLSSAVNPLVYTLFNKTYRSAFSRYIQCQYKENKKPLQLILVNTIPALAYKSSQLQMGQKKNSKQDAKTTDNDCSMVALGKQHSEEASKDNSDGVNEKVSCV
row,Compound,IC50
1,"O[C@@H](COC1CCCCC1)CN1[C@@H]2CC[C@H]1CN(c1ccc(F)cc1)C2 [Example 290, (R)-1-(cyclohexyloxy)-3-((1R,5S)-3-(4-fluorophenyl)-3,8-diazabicyclo[3.2.1]octan-8-yl)propan-2-ol]",0.002 µM
2,"c1ccc2c(c1)COC21CCN(CC2COc3ccccc32)CC1 (centres unmarked) [Example 391, 1′-((2,3-dihydrobenzofuran-3-yl)methyl)-3H-spiro[isobenzofuran-1,4′-piperidine]]",14.1 µM
3,"OC(COC1CCCCC1)CN1CCC2(CC1)COc1ccccc12 (centres unmarked) [Example 389, 1-(cyclohexyloxy)-3-(2H-spiro[benzofuran-3,4′-piperidin]-1′-yl)propan-2-ol]",8.58 µM

# Same assay, conditions: antagonist mode vs EC80 of reference agonist, method A or B, read-out: 5HT2A IC50
row,Compound,IC50
1,"C[C@@H]1C[C@@]2(CCc3ccccc3O2)CCN1CCO[C@H]1CCc2ccccc21 [Example 434, (2R,2′R)-1′-(2-(((S)-2,3-dihydro-1H-inden-1-yl)oxy)ethyl)-2′-methylspiro[chromane-2,4′-piperidine]]",0.73 µM
2,"O=C1c2ccccc2CCN1CCN1CCC[C@H](Oc2ccc(F)cc2)C1 [Example 265, (S)-2-(2-(3-(4-fluorophenoxy)piperidin-1-yl)ethyl)-3,4-dihydroisoquinolin-1(2H)-one]",> 13.1 µM
3,"OC(CO[C@H]1CCCc2ccccc21)CN1CC[C@H](Oc2ccc(F)cc2)C1 (stereo partly drawn) [Example 49, 1-((S)-3-(4-fluorophenoxy)pyrrolidin-1-yl)-3-(((S)-1,2,3,4-tetrahydronaphthalen-1-yl)oxy)propan-2-ol]",2.55 µM
4,"OC1(CN2CCC[C@@H](Oc3ccc(F)cc3)C2)COCc2ccccc21 (stereo partly drawn) [Example 258, 4-(((R)-3-(4-fluorophenoxy)piperidin-1-yl)methyl)isochroman-4-ol]",1.5 µM
5,"O[C@H](COC1CCCCC1)CN1C[C@@H]2C[C@H](C1)N(c1ccccc1)C2 [Example 333, (S)-1-(cyclohexyloxy)-3-((1S,5R)-6-phenyl-3,6-diazabicyclo[3.2.1]octan-3-yl)propan-2-ol]",> 16.7 µM
6,"Fc1ccc(OC2COCCN(CC3Cc4cccnc4C3)C2)cc1 (centres unmarked) [Example 279, 4-((6,7-dihydro-5H-cyclopenta[b]pyridin-6-yl)methyl)-6-(4-fluorophenoxy)-1,4-oxazepane]",> 10 µM
7,"COC(CCN1CCC(Oc2ccccc2)CC1)c1ccccc1 (centres unmarked) [Example 226, 1-(3-methoxy-3-phenylpropyl)-4-phenoxypiperidine]",0.02 µM
8,"OC(COc1ccccc1)CN1C[C@H]2CC[C@@H](C1)N2c1ccccc1 (stereo partly drawn) [Example 302, 1-phenoxy-3-((1R,5S)-8-phenyl-3,8-diazabicyclo[3.2.1]octan-3-yl)propan-2-ol]",> 2.7 µM
9,"COc1cccc(O[C@H]2CCN(CCN3CCc4ccccc4C3=O)C2)c1 [Example 22, (S)-2-(2-(3-(3-methoxyphenoxy)pyrrolidin-1-yl)ethyl)-3,4-dihydroisoquinolin-1(2H)-one]",2.34 µM
10,"CC(CN1CCc2ccccc2C1=O)N1CCC(Oc2ccc(F)cc2)CC1 (centres unmarked) [Example 204, 2-(2-(4-(4-fluorophenoxy)piperidin-1-yl)propyl)-3,4-dihydroisoquinolin-1(2H)-one]",0.56 µM
11,"COc1ccccc1O[C@H]1CCN(CC2Cc3ccccc3C2)[C@@H](C)C1 [Example 143, (2S,4S)-1-((2,3-dihydro-1H-inden-2-yl)methyl)-4-(2-methoxyphenoxy)-2-methylpiperidine]",0.08 µM

# The next lines start with the values.
row,IC50,Compound
1,0.29 µM,"CC1(C)Oc2ccccc2C1CN1CCC(Oc2ccccc2F)CC1 (centres unmarked) [Example 133, 1-((2,2-dimethyl-2,3-dihydrobenzofuran-3-yl)methyl)-4-(2-fluorophenoxy)piperidine]"
2,> 12.9 µM,"O[C@H](COC1CCCCC1)CN1CCC[C@@H](Oc2ccc(F)cc2)C1 [Example 266, (S)-1-(cyclohexyloxy)-3-((R)-3-(4-fluorophenoxy)piperidin-1-yl)propan-2-ol]"
3,1.94 µM,"OC(COC1CCCCC1)CN1CCC2(CC1)CCN(c1ccccc1)C2 (centres unmarked) [Example 354, 1-(cyclohexyloxy)-3-(2-phenyl-2,8-diazaspiro[4.5]decan-8-yl)propan-2-ol]"
4,1.6 µM,"COc1cccc(O[C@@H]2CCN(CC(O)CO[C@@H]3CCc4ccccc43)C2)c1 (stereo partly drawn) [Example 40, 1-(((R)-2,3-dihydro-1H-inden-1-yl)oxy)-3-((R)-3-(3-methoxyphenoxy)pyrrolidin-1-yl)propan-2-ol]"
5,1.44 µM,"O=C1CC2(CCN(CC3CCc4ccccc43)CC2)Oc2ccccc21 (centres unmarked) [Example 444, l′-((2,3-dihydro-1H-inden-1-yl)methyl)spiro[chromane-2,4′-piperidin]-4-one]"
6,> 3.16 µM,"c1ccc(N2C[C@@H]3C[C@H]2CCN3CCC2CCc3cccnc32)cc1 (stereo partly drawn) [Example 323, 7-(2-((1S,5R)-6-phenyl-2,6-diazabicyclo[3.2.1]octan-2-yl)ethyl)-6,7-dihydro-5H-cyclopenta[b]pyridine]"
7,0.8 µM,"Cc1cccc(N2CCN(CC3CCOc4ccccc43)CC2)c1C (centres unmarked) [Example 59, 1-(chroman-4-ylmethyl)-4-(2,3-dimethylphenyl)piperazine]"
8,0.04 µM,"Fc1ccccc1OC1CCN(CC2COc3ccccc32)CC1 (centres unmarked) [Example 132, 1-((2,3-dihydrobenzofuran-3-yl)methyl)-4-(2-fluorophenoxy)piperidine]"
9,10.4 µM,"OC(COc1ccccc1)CN1C[C@@H]2C[C@H]1CN2c1ccccc1 (stereo partly drawn) [Example 307, 1-phenoxy-3-((1S,4S)-5-phenyl-2,5-diazabicyclo[2.2.1]heptan-2-yl)propan-2-ol]"
10,> 12.9 µM,"Fc1ccc(O[C@H]2CCCN(CCC3CCOc4ccccc43)C2)cc1 (stereo partly drawn) [Example 263, (3S)-1-(2-(chroman-4-yl)ethyl)-3-(4-fluorophenoxy)piperidine]"
11,7.34 µM,"OC(COC1CCCCC1)CN1CCC2(CCCN2c2ccccc2)C1 (centres unmarked) [Example 348, 1-(cyclohexyloxy)-3-(1-phenyl-1,7-diazaspiro[4.4]nonan-7-yl)propan-2-ol]"
12,5.88 µM,"Fc1ccc(O[C@@H]2CCN(CC3CCc4ccncc43)C2)cc1 (stereo partly drawn) [Example 5, 7-(((R)-3-(4-fluorophenoxy)pyrrolidin-1-yl)methyl)-6,7-dihydro-5H-cyclopenta[c]pyridine]"
13,> 16.7 µM,"OC(COC1CCCCC1)CN1CCC2(CCCN(c3ccccc3)C2)C1 (centres unmarked) [Example 351, 1-(cyclohexyloxy)-3-(7-phenyl-2,7-diazaspiro[4.5]decan-2-yl)propan-2-ol]"
14,> 10 µM,"COc1ccccc1OC1CCN(CC2COc3ccccc32)CC1 (centres unmarked) [Example 130, 1-((2,3-dihydrobenzofuran-3-yl)methyl)-4-(2-methoxyphenoxy)piperidine]"
15,0.04 µM,"c1ccc(CCN2CCC(Oc3ccccc3)CC2)cc1 [Example 214, 1-phenethyl-4-phenoxypiperidine]"
16,1.25 µM,"Fc1ccc(O[C@H]2CCN(CC3CCc4cnccc43)C2)cc1 (stereo partly drawn) [Example 2, 5-(((S)-3-(4-fluorophenoxy)pyrrolidin-1-yl)methyl)-6,7-dihydro-5H-cyclopenta[c]pyridine]"
17,0.09 µM,"O[C@H](COC1CCCCC1)CN1CC2(CC(Oc3ccccc3)CO2)C1 (stereo partly drawn) [Example 371, (2S)-1-(cyclohexyloxy)-3-(7-phenoxy-5-oxa-2-azaspiro[3.4]octan-2-yl)propan-2-ol]"
18,0.32 µM,"C[C@H]1C[C@]2(CCc3ccccc3O2)CCN1CCO[C@H]1CCc2ccccc21 [Example 433, (2S,2′S)-1′-(2-(((S)-2,3-dihydro-1H-inden-1-yl)oxy)ethyl)-2′-methylspiro[chromane-2,4′-piperidine]]"
19,> 16.7 µM,"O=C1c2ccccc2CCN1CCN1CC[C@H](Oc2ccncc2)C1 [Example 30, (S)-2-(2-(3-(pyridin-4-yloxy)pyrrolidin-1-yl)ethyl)-3,4-dihydroisoquinolin-1(2H)-one]"
20,3.99 µM,"COc1ccc2c(c1)C(CN1CCC[C@H](Oc3ccc(F)cc3)C1)CC2 (stereo partly drawn) [Example 256, (3S)-3-(4-fluorophenoxy)-1-((6-methoxy-2,3-dihydro-1H-inden-1-yl)methyl)piperidine]"
21,0.09 µM,"O[C@@H](COC1CCCCC1)CN1CC2(CC(Oc3ccccc3)CO2)C1 (stereo partly drawn) [Example 372, (2R)-1-(cyclohexyloxy)-3-(7-phenoxy-5-oxa-2-azaspiro[3.4]octan-2-yl)propan-2-ol]"
